Here are results for 3 molecules from patent US9834540B2, “Omeprazole Sodium semihydrate and preparation method thereof” (TIANJIN UNIVERSITY, priority 2015, dated 2017).

As a reminder, the LD50 is the dose expected to kill half of the subjects tested.

Each structure is given as a SMILES string. “And” between values parts separate entries of the source, which are not always exact repeats. Equal values may be shown once. “Also recorded” adds a separate entry of the source.

The conditions of data set [1]: prior-art description; cited from earlier work.
Data set [2] is described as follows: DSC analysis, thermal decomposition temperature. The conditions noted are these: 10° C./min, 25˜300° C. Format: physicochemical. How it is done:
The DSC data is obtained by analysis using a differential scanning calorimetry (DSC1/500, Mettler Toledo Corporation, Switzerland), and the analysis conditions are as follows: adding 10 mg of sample to a 40 μL Aluminum crucible, providing high-purity nitrogen as reaction gas and shield gas with a gas-flow rate of 50 mL/min and 20 mL/min, and raising the temperature at a rate of 10° C./min and a range of 25˜300° C.

A short description of the next data set: Flowability (carr index). Format: physicochemical.
Data set [3] can be described thus: Thermal stability test at 60° C. (airtight container, 10 days, weighed regularly). Format: physicochemical. To be noted: for Change of crystal form / X-ray powder diffraction pattern after deposit at 60° C.: 10 days.
Data set [4] in a line: Hygroscopicity at 40° C. by dynamic vapor sorption. Format: physicochemical.
A short description of data set [5]: Deposit at 40° C. and relative humidity 75% for 3 days. The class given is physicochemical. The conditions noted are these: relative humidity 75%. How it is done: 0.45 g of Omeprazole Sodium monohydrate, 20 mL of ethyl acetate and 10 mL of s-butanol were added to a crystallizer, and the mixture was stirred at a temperature of 35° C. and a speed of 200 r/min for 2 hours, followed by filtrating and drying to provide 0.42 g of Omeprazole Sodium semihydrate with a mole yield of 95.6% and a HPLC purity of 99.8%. The product had same X-ray powder diffraction pattern as FIG. 1, same solid Fourier transform infrared spectrum as FIG. 2, and DSC decomposition temperature of 227.5° C.

Data set [6] has as its system rats. The data set can be described thus: Carcinogenic test in rats within 24 months. To be noted: 24 months persistently treated. The class given is in vivo.
Data set [7] in a line: Toxic responses, overall comparison. The conditions noted are these: in words.
For data set [8], the system named is male and female rats. To be noted: rat, in vivo.
Data set [9] relates to male and female rats. The data set can be described thus: Reproductive toxicity test. To be noted: oral 138 mg/kg/day.
Data set [10] in a line: Toxic responses test, intravenous lethal dose in rats. The conditions noted are these: rat, in vivo, read-out: intravenous LD50 (median lethal dose).
Data set [11] is described as follows: Toxic responses test, lethal dose in mice. To be noted: mouse, in vivo.
Data set [12] concerns rats. To be noted: rat, in vivo, 140 mg/kg/day.
A further data set has as its system stomach ECL cells. The conditions noted are these: rat, in vivo.
The test system of the next data set is dogs. To be noted: dog, in vivo.
The mark [13] stands for this setting: listed as Example 1, sodium salt.
Where [14] appears, read: listed as Example 2, sodium salt.
The mark [15] stands for this setting: listed as Example 3, sodium salt.

Regarding `COc1ccc2[nH]c([S+]([O-])Cc3ncc(C)c(OC)c3C)nc2c1` (stereo not drawn) [Omeprazole Sodium hydrate], in [1], the “stability (in words)” value is “poor stability”.
Consider `COc1ccc2[n-]c([S+]([O-])Cc3ncc(C)c(OC)c3C)nc2c1.[Na+]` (stereo not drawn) [Omeprazole Sodium semihydrate], for which the “thermal decomposition temperature (DSC decomposing exothermic peak)” value in data set [2] (setting [13]) was 227.5 °C; in data set [2] (setting [14]), 229.2 °C; in data set [2] (setting [15]), 229.5 °C; in data set [2] (sodium salt), 228.5±1 °C and 228.5 °C. For the same molecule, the carr index is reported as 14.3% in “Flowability (carr index)” (setting [13]), 13.9% in the data set “Flowability (carr index)” (setting [14]), 14.7% in the data set “Flowability (carr index)” (setting [15]) and “less than 15%” in the data set “Flowability (carr index)” (sodium salt). The Weight changing rate came out at 0% in data set [3] (0 day); 1.1% in [3] (5 day); 2.4% in data set [3] (10 day, listed as Example 1, sodium salt); 2.5% in data set [3] (10 day, listed as Example 2, sodium salt); 2.4% in [3] (10 day, listed as Example 3, sodium salt); 0% in [4] (relative humidity 0%). In addition, the Weight changing rate in data set [4] (relative humidity 5%) is recorded as 0.001%; in data set [4] (relative humidity 10%), 0.004%; in data set [4] (relative humidity 15%), 0.01%; in [4] (relative humidity 20%), 0.02%; in data set [4] (relative humidity 25%), 0.02%; in data set [4] (relative humidity 30%) it was 0.03%. The Weight changing rate in [4] (relative humidity 35%) was determined as 0.03%; in data set [4] (relative humidity 40%) it was 0.03%; in data set [4] (relative humidity 45%), 0.14%; in data set [4] (relative humidity 50%), 0.17%; in data set [4] (relative humidity 55%) it was 0.28%; in data set [4] (relative humidity 60%), 0.37%. Moreover, the Weight changing rate is recorded as 0.45% in data set [4] (relative humidity 65%), 0.53% in [4] (relative humidity 70%), 0.69% in data set [4] (relative humidity 75%) and 0.68% in [5]. Moreover, the figures for the Weight of sample in data set [3] (0 day), in [3] (5 day) and in data set [3] (10 day) were 9.5852 g, 9.4826 g and 9.3790 g, respectively. Besides, the “Change of crystal form / X-ray powder diffraction pattern after deposit at 60° C.” value was “without making any significant changes in the X-ray powder diffraction pattern” in data set [3] (setting [13]), “without making any significant changes in the X-ray powder diffraction pattern” in [3] (setting [14]), “without making any significant changes in the X-ray powder diffraction pattern” in data set [3] (setting [15]) and “does not make any significant change” in [3] (sodium salt). Also, in [4] (in words), the “hygroscopicity compared with Omeprazole Sodium monohydrate” value is on record as “lower hygroscopicity”. In addition, the “drug mutation test result” value in “Drug mutation test” is recorded as “negative”. Moreover, in the data set on rats [6], the “carcinogenic test: gastric mucosa finding” value was “enterochromaffin-like cell hyperplasia in gastric mucosa”. In addition, the “carcinogenic test: carcinogenesis / cancer metastasis” value with rats [6] (sodium salt) is reported as “cancer metastasis is not found; also recorded: carcinogenesis occurred without cancer metastasis”. Further, the “toxicity compared with existing Omeprazole Sodium or monohydrate” value in [7] is “improved toxicity”. Further, the “reproductive toxicity test result” value in the data set with male and female rats [8] is listed as “negative”. Besides, in the data set with male and female rats [9], the “influence on reproductive performance” value is on record as “no influence on reproductive performance”.
For the molecule `COc1ccc2[nH]c([S+]([O-])Cc3ncc(C)c(OC)c3C)nc2c1` (stereo not drawn) [Omeprazole], the LD50 in data set [10] was 302 mg/kg; in data set [11] (mice, intravenous, read-out: Intravenous LD50), 82.8 mg/kg; in [11] (oral, species not restated, follows mice, read-out: oral LD50), over 2000 mg/kg. Further, the long-term toxicity findings result in the data set with rats [12] was “liver and kidney increased in weight without histologic changes”. Further, the “stomach ECL cell findings in long-term treatment” value in the data set on stomach ECL cells is “cell increase and benign tumour were observed in stomach ECL cells”. Moreover, the “Intravenous LDLo (lowest published lethal dose)” value in the data set on dogs is 500 mg/kg.
